Relative tumor volume and Relative body weight data for two molecules are collected here from US20090162313A1, “High-Molecular Weight Conjugate of Podophyllotoxins” (priority 2006, published 2009).

Data set [1] has as its system Mouse colon cancer, Colon 26. As to the kind of experiment: Antitumor effect of compound 1, subcutaneously transplanted tumor, relative tumor volume. The data set is classed as in vivo. The conditions noted are these: 90 mg/kg once i.v., female CDF1 mice. Here is the method: (§1) Mouse colon cancer, Colon 26, maintained by serial subcutaneous subculture in mice, was minced into about 2-mm square fragments, and the fragments were subcutaneously transplanted on the dorsal part of female CDF1 mice with a trocar. […] The control group means a group to which the drug was not administered. Compound 1 was dissolved in a 5% glucose solution for injection and used. As for […] injection (manufactured by Nippon Kayaku Co., Ltd.) was diluted with a 5% glucose solution for injection and used. After the administration, the major axis (L mm) and the minor axis (W mm) of the tumor were measured using a caliper, and the tumor volume was calculated by the formula: (L×W^2)/2. […] The changes of the body weight during this period of time is also shown in Table 1 as the relative body weight based on the body weight on the day of administration.

Data set [2] is described as follows: Relative body weight of tumor-bearing mice, Test Example 3. The data set is classed as in vivo, mouse. Conditions: 90 mg/kg once i.v., female CDF1 mice. How it is done:
as §1

For data set [3], the system named is Mouse colon cancer, Colon 26. As to the kind of experiment: Antitumor action of compounds 2 and 3, subcutaneously transplanted tumor, relative tumor volume. Type of data set: in vivo. The conditions noted are these: 15 mg/kg i.v. for 5 consecutive days (total 75 mg/kg), female CDF1 mice. Here is the method:
(§2) Mouse colon cancer, Colon 26, maintained by serial subcutaneous subculture in mice, was minced into about 2 mm-square fragments, and the fragments were transplanted subcutaneously on the dorsal part of female CDF1 mice with a trocar. […] The control group means a group to which the drug was not administered. POD, purchased from Sigma-Aldrich Company, was diluted with dimethylsulfoxide and a 5% glucose solution for injection and administered for 5 consecutive days from the administration initiation day. After the administration, the major axis (L mm) and the minor axis (W mm) of the tumor were measured using a caliper, and the tumor volume was calculated by the formula: (L×W^2)/2. […] The changes of the body weight during this period of time is also shown in Table 2 as the relative body weight based on the body weight on the day of administration.

Data set [4] is described as follows: Relative body weight of tumor-bearing mice, Test Example 4. Type of data set: in vivo, mouse. Conditions: 15 mg/kg i.v. for 5 consecutive days (total 75 mg/kg), female CDF1 mice. Here is the method:
as §2

[5] abbreviates: day 0 after administration initiation day.
Setting [6] is: day 3 after administration initiation day.
The mark [7] stands for this setting: day 5 after administration initiation day.
Setting [8] is: day 8 after administration initiation day.

Consider `COc1cc([C@@H]2c3cc4c(cc3[C@@H](O[C@@H]3O[C@@H]5CO[C@@H](C)O[C@H]5[C@H](O)[C@H]3O)[C@H]3COC(=O)[C@H]23)OCO4)cc(OC)c1O` [ETP, etoposide], for which the Relative tumor volume is recorded as 1.00 in data set [1] (day 0 after administration), 1.17 in data set [1] (day 4 after administration) and 3.79 in data set [1] (day 8 after administration). In addition, the Relative body weight in data set [2] (day 0 after administration) is 1.00; in data set [2] (day 4 after administration), 0.87; in data set [2] (day 8 after administration), 0.97.
Take `COc1cc([C@@H]2c3cc4c(cc3[C@H](O)[C@H]3COC(=O)[C@H]23)OCO4)cc(OC)c1OC` [POD, podophyllotoxin]: the Relative tumor volume in data set [3] (setting [5]) was found to be 1.00; in data set [3] (setting [6]), 1.58; in data set [3] (setting [7]) it was 1.79; in data set [3] (setting [8]), 6.08. Also, the Relative body weight in data set [4] (setting [5]) stood at 1.00; in data set [4] (setting [6]), 1.01; in data set [4] (setting [7]) it was 0.96; in data set [4] (setting [8]), 0.98.
